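Where inhibition never reached the appropriate level, the endpoint shown equals the highest concentration tested. Otherwise, values were interpolated linearly from a five-concentration, 48-hour dose response in 96-well plates. The concentration for 50% growth inhibition is given as GI50.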 The source made the active and inactive calls. No stated cut-off is given here; in the data, active = GI50 up to about 1.1 µM and inactive = higher.
Tests used:
Test in all cases: inhibition of tumour cell growth, NCI panel, 48 h
786-0 = test system: 786-0
A498 = test system: A498
A549 = test system: A549
ACHN = test system: ACHN
BT-549 = test system: BT-549
CAKI-1 = test system: CAKI-1
CCRF-CEM = test system: CCRF-CEM
COLO 205 = test system: COLO 205
DLD-1 = test system: DLD-1
DMS-114 = test system: DMS-114
DU-145 = test system: DU-145
EKVX = test system: EKVX
HCC 2998 = test system: HCC 2998
HCT-116 = test system: HCT-116
HCT-15 = test system: HCT-15
HL-60 = test system: HL-60
HOP-18 = test system: HOP-18
HOP-62 = test system: HOP-62
HOP-92 = test system: HOP-92
HT-29 = test system: HT-29
Hs-578T = test system: Hs-578T
IGROV-1 = test system: IGROV-1
K562 = test system: K562
KM-20L2 = test system: KM-20L2
KM12 = test system: KM12
LOX IMVI = test system: LOX IMVI
LXFL 529 = test system: LXFL 529
M14 = test system: M14
M19-MEL = test system: M19-MEL
MCF7 = test system: MCF7
MDA-MB-231 = test system: MDA-MB-231
MDA-MB-435 = test system: MDA-MB-435
MDA-N = test system: MDA-N
MOLT-4 = test system: MOLT-4
Malme-3M = test system: Malme-3M
NCI-H226 = test system: NCI-H226
NCI-H23 = test system: NCI-H23
NCI-H460 = test system: NCI-H460
NCI-H522 = test system: NCI-H522
NCI/ADR-RES = test system: NCI/ADR-RES
OVCAR-3 = test system: OVCAR-3
OVCAR-4 = test system: OVCAR-4
OVCAR-5 = test system: OVCAR-5
OVCAR-8 = test system: OVCAR-8
PC-3 = test system: PC-3
RPMI-8226 = test system: RPMI-8226
RXF 393 = test system: RXF 393
SF-268 = test system: SF-268
SF-295 = test system: SF-295
SF-539 = test system: SF-539
SK-MEL-28 = test system: SK-MEL-28
SK-MEL-2 = test system: SK-MEL-2
SK-MEL-5 = test system: SK-MEL-5
SK-OV-3 = test system: SK-OV-3
SN12C = test system: SN12C
SNB-19 = test system: SNB-19
SNB-75 = test system: SNB-75
SR = test system: SR
SW-620 = test system: SW-620
T47D = test system: T47D
TK-10 = test system: TK-10
U-251 = test system: U-251
UACC-257 = test system: UACC-257
UACC-62 = test system: UACC-62
UO-31 = test system: UO-31
XF498 = test system: XF498
SNB-78 = test system: SNB-78

## COc1nc(NC2OC(COC(C)=O)C(OC(C)=O)C(OC(C)=O)C2OC(C)=O)c(/N=C/C=N/c2c(NC3OC(COC(C)=O)C(OC(C)=O)C(OC(C)=O)C3OC(C)=O)nc(OC)n(C)c2=O)c(=O)n1C (stereo unspecified)
786-0
  GI50: 51.5 µM (inactive)
A498
  GI50: > 100 µM (inactive)
A549
  GI50: > 100 µM (inactive)
ACHN
  GI50: > 100 µM (inactive)
BT-549
  GI50: > 100 µM (inactive)
CAKI-1
  GI50: > 100 µM (inactive)
CCRF-CEM
  GI50: > 100 µM (inactive)
COLO 205
  GI50: > 100 µM (inactive)
DLD-1
  GI50: > 100 µM (inactive)
DMS-114
  GI50: > 100 µM (inactive)
DU-145
  GI50: > 100 µM (inactive)
EKVX
  GI50: > 100 µM (inactive)
HCC 2998
  GI50: > 100 µM (inactive)
HCT-116
  GI50: > 100 µM (inactive)
HCT-15
  GI50: > 100 µM
HL-60
  GI50: > 100 µM (inactive)
HOP-18
  GI50: > 100 µM (inactive)
HOP-62
  GI50: 28.1 µM (inactive)
HOP-92
  GI50: 39 µM (inactive)
HT-29
  GI50: > 100 µM (inactive)
Hs-578T
  GI50: 28.3 µM (inactive)
IGROV-1
  GI50: > 100 µM (inactive)
K562
  GI50: > 100 µM (inactive)
KM-20L2
  GI50: > 100 µM (inactive)
KM12
  GI50: > 100 µM (inactive)
LOX IMVI
  GI50: > 100 µM (inactive)
LXFL 529
  GI50: > 100 µM (inactive)
M14
  GI50: > 100 µM (inactive)
M19-MEL
  GI50: > 100 µM (inactive)
MCF7
  GI50: > 100 µM (inactive)
MDA-MB-231
  GI50: > 100 µM (inactive)
MDA-MB-435
  GI50: > 100 µM (inactive)
MDA-N
  GI50: > 100 µM (inactive)
MOLT-4
  GI50: > 100 µM (inactive)
Malme-3M
  GI50: > 100 µM (inactive)
NCI-H226
  GI50: 97.5 µM (inactive)
NCI-H23
  GI50: > 100 µM (inactive)
NCI-H460
  GI50: > 100 µM (inactive)
NCI-H522
  GI50: > 100 µM (inactive)
NCI/ADR-RES
  GI50: > 100 µM (inactive)
OVCAR-3
  GI50: > 100 µM (inactive)
OVCAR-4
  GI50: > 100 µM (inactive)
OVCAR-5
  GI50: > 100 µM (inactive)
OVCAR-8
  GI50: > 100 µM (inactive)
PC-3
  GI50: > 100 µM (inactive)
RPMI-8226
  GI50: > 100 µM (inactive)
RXF 393
  GI50: 30.5 µM (inactive)
SF-268
  GI50: > 70.3 µM (inactive)
SF-295
  GI50: 49.2 µM (inactive)
SF-539
  GI50: > 100 µM (inactive)
SK-MEL-28
  GI50: > 100 µM (inactive)
SK-MEL-2
  GI50: > 100 µM (inactive)
SK-MEL-5
  GI50: > 100 µM (inactive)
SK-OV-3
  GI50: > 88.3 µM (inactive)
SN12C
  GI50: > 100 µM (inactive)
SNB-19
  GI50: 48.4 µM (inactive)
SNB-75
  GI50: 17 µM (inactive)
SR
  GI50: > 100 µM (inactive)
SW-620
  GI50: > 100 µM (inactive)
T47D
  GI50: > 100 µM (inactive)
TK-10
  GI50: 56.4 µM (inactive)
U-251
  GI50: 30.5 µM (inactive)
UACC-257
  GI50: > 100 µM (inactive)
UACC-62
  GI50: > 100 µM (inactive)
UO-31
  GI50: > 100 µM (inactive)
XF498
  GI50: 44.2 µM (inactive)

## CC1=NN2C(c3ccc(C)cc3)=CSC2=NC(C)(C)C1
786-0
  GI50: > 100 µM (inactive)
A498
  GI50: > 100 µM (inactive)
A549
  GI50: > 100 µM (inactive)
ACHN
  GI50: > 100 µM (inactive)
CCRF-CEM
  GI50: > 100 µM (inactive)
COLO 205
  GI50: > 100 µM (inactive)
DLD-1
  GI50: > 100 µM (inactive)
DMS-114
  GI50: 71 µM (inactive)
EKVX
  GI50: > 100 µM (inactive)
HCC 2998
  GI50: > 100 µM (inactive)
HCT-116
  GI50: > 100 µM (inactive)
HCT-15
  GI50: > 100 µM
HL-60
  GI50: 76.2 µM (inactive)
HOP-18
  GI50: > 100 µM (inactive)
HOP-62
  GI50: > 100 µM (inactive)
HOP-92
  GI50: > 100 µM (inactive)
HT-29
  GI50: > 100 µM (inactive)
IGROV-1
  GI50: > 100 µM (inactive)
K562
  GI50: 61.5 µM (inactive)
KM-20L2
  GI50: > 100 µM (inactive)
KM12
  GI50: > 100 µM (inactive)
LOX IMVI
  GI50: > 100 µM (inactive)
LXFL 529
  GI50: > 100 µM (inactive)
M14
  GI50: > 100 µM (inactive)
M19-MEL
  GI50: > 100 µM (inactive)
MOLT-4
  GI50: > 100 µM (inactive)
Malme-3M
  GI50: > 100 µM (inactive)
NCI-H226
  GI50: > 100 µM (inactive)
NCI-H23
  GI50: > 100 µM (inactive)
NCI-H460
  GI50: > 100 µM (inactive)
NCI-H522
  GI50: > 100 µM (inactive)
OVCAR-3
  GI50: > 100 µM (inactive)
OVCAR-4
  GI50: > 100 µM (inactive)
OVCAR-5
  GI50: > 100 µM (inactive)
OVCAR-8
  GI50: > 100 µM (inactive)
RPMI-8226
  GI50: > 100 µM (inactive)
RXF 393
  GI50: > 100 µM (inactive)
SF-268
  GI50: > 100 µM (inactive)
SF-295
  GI50: > 100 µM (inactive)
SF-539
  GI50: > 100 µM (inactive)
SK-MEL-28
  GI50: > 100 µM (inactive)
SK-MEL-2
  GI50: > 100 µM (inactive)
SK-MEL-5
  GI50: > 100 µM (inactive)
SK-OV-3
  GI50: > 100 µM (inactive)
SN12C
  GI50: > 100 µM (inactive)
SNB-19
  GI50: > 100 µM (inactive)
SNB-75
  GI50: > 100 µM (inactive)
SNB-78
  GI50: > 100 µM (inactive)
SW-620
  GI50: > 100 µM (inactive)
TK-10
  GI50: > 100 µM (inactive)
U-251
  GI50: > 100 µM (inactive)
UACC-257
  GI50: > 100 µM (inactive)
UACC-62
  GI50: > 100 µM (inactive)
UO-31
  GI50: > 100 µM (inactive)
XF498
  GI50: 54 µM (inactive)

Reference: ChEMBL document CHEMBL1201862, “PubChem BioAssay data set” (2004)
